Here are results for four compounds from ChEMBL document CHEMBL4418910, “Methods for categorising cancer such as breast cancer” (2018).

Assay [1] deals with T1, Serine/threonine-protein kinase LMTK3 (Homo sapiens) (UniProt Q96Q04).
T1 sequence (whole entry): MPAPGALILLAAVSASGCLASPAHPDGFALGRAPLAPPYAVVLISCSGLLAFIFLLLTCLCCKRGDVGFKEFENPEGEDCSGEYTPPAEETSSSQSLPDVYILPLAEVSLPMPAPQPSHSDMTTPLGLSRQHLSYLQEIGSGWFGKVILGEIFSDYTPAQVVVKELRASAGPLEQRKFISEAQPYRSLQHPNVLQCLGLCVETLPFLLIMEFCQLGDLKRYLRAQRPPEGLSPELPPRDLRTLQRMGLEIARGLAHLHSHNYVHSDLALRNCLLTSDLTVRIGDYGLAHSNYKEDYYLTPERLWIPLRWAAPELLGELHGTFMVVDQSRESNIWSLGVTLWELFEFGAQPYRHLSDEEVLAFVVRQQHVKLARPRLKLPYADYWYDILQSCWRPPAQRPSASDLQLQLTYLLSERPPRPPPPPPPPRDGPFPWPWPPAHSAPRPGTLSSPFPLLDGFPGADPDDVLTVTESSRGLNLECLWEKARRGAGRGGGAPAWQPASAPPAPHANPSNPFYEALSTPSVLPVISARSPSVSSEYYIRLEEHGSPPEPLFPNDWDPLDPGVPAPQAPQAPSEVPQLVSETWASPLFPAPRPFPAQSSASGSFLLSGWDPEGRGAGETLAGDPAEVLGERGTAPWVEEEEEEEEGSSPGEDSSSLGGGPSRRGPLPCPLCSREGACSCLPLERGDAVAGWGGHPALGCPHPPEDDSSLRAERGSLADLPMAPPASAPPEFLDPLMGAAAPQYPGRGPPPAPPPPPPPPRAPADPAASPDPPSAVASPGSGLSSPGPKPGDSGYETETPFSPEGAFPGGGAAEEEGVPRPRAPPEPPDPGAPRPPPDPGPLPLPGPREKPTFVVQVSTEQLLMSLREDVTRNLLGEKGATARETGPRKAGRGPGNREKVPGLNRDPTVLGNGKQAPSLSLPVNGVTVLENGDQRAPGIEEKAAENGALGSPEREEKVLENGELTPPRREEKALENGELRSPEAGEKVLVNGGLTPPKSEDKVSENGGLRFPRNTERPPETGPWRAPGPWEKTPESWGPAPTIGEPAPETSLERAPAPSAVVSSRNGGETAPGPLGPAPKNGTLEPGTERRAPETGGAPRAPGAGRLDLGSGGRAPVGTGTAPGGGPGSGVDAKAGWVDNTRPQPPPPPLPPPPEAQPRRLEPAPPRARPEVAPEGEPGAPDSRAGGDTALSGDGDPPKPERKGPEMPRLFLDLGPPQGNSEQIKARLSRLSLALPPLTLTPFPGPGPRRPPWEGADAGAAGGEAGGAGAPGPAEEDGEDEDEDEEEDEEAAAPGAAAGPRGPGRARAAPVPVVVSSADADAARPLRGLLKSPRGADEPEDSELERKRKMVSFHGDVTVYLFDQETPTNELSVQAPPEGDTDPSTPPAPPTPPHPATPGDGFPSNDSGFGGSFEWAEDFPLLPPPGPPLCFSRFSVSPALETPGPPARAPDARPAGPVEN
Kind of assay: Inhibition of N-terminal GST tag LMTK3 kinase domain (133 to 415 amino acids) (unknown origin) expressed in insect cells incubated for 120 mins by […] fluorescent detection based CisBio KinEASE STK-S1 kit based assay relative to untreated control.

The target in assay [2] is T2, Serine/threonine-protein kinase LMTK3 (Homo sapiens, UniProt Q96Q04).
T2 sequence (Q96Q04 whole entry): T1 sequence (whole entry)
The assay can be described thus: Inhibition of N-terminal GST tag LMTK3 kinase domain (133 to 415 amino acids) (unknown origin) expressed in insect cells incubated for 120 mins by […] fluorescent detection based CisBio KinEASE STK-S1 kit based assay.

`COC(=O)[C@@]1(O)C[C@H]2O[C@]1(C)n1c3ccccc3c3c4c(c5c6ccccc6n2c5c31)C(=O)NC4`: in assay [1], the inhibition stood at 98.9%.

`CCCCCCOC(=O)[C@]1(O)C[C@H]2O[C@]1(C)n1c3ccccc3c3c4c(c5c6ccccc6n2c5c31)C(=O)NC4` showed an IC50 in assay [2] of 0.117 nM. Moreover, the inhibition in assay [1] came to 98.7%.

Consider `CN(C)CCCn1cc(C2=C(c3c[nH]c4ccccc34)C(=O)NC2=O)c2ccccc21` [GF-109203], for which the IC50 in assay [2] was 0.132 nM. Besides, the inhibition in assay [1] amounted to 108%.

Turning to `CN[C@@H]1C[C@H]2O[C@@](C)([C@@H]1OC)n1c3ccccc3c3c4c(c5c6ccccc6n2c5c31)C(=O)NC4`, the inhibition in assay [1] was 109%.
